Measured values: patent US10596172B2 (Celgene CAR LLC, priority 2008, dated 2020)
Like-named read-outs stand apart in the source and are kept apart here.

Experiments:
BTK [1] = molecular target: T1, BTK (Homo sapiens (Human), UniProt Q06187); test: Mass spectrometry for BTK (covalent modification of intact protein); assay type: binding; conditions: 1 hr, 10x fold excess of compound
Protocol: Intact BTK was incubated for 1 hr at a 10× fold excess of I-7 to protein. Aliquots (2 μl) of the samples were diluted with 10 μl of 0.1% TFA prior to micro C4 ZipTipping directly onto the MALDI target using Sinapinic acid as the desorption matrix (10 mg/ml in 0.1% TFA:Acetonitrile 20:80).

Human naïve B cells = test: Human primary B cell proliferation assay; assay type: cell-based; conditions: 5 μg/ml α-IgM 72 hours, 3H-thymidine incorporation
Protocol: Human naïve B cells were purified from 100 mL whole blood using a MACS purification kit designed to isolate CD19+, IgD+ cells by negative selection. Purified naïve B cells were resuspended in RPMI complete and stimulated with 5 μg/ml α-IgM for 72 hours. ^3H-Thymidine was included in the culture media for the final 16 h, cells were harvested and ^3H incorporation measured. Inhibition of B cell proliferation correlates with inhibition of BTK substrate phosphorylation after α-IgM stimulation.

[2] = test system: B cell lymphoma cell lines; test: B cell lymphoma proliferation assay; assay type: cell-based
JAK3 = JAK3 (Homo sapiens (Human), UniProt P52333); test: Omnia assay for potency assessment against the active form of JAK3; assay type: biochemical; conditions: read-out: JAK3 Inhibition
Sequence of JAK3 (P52333 whole entry): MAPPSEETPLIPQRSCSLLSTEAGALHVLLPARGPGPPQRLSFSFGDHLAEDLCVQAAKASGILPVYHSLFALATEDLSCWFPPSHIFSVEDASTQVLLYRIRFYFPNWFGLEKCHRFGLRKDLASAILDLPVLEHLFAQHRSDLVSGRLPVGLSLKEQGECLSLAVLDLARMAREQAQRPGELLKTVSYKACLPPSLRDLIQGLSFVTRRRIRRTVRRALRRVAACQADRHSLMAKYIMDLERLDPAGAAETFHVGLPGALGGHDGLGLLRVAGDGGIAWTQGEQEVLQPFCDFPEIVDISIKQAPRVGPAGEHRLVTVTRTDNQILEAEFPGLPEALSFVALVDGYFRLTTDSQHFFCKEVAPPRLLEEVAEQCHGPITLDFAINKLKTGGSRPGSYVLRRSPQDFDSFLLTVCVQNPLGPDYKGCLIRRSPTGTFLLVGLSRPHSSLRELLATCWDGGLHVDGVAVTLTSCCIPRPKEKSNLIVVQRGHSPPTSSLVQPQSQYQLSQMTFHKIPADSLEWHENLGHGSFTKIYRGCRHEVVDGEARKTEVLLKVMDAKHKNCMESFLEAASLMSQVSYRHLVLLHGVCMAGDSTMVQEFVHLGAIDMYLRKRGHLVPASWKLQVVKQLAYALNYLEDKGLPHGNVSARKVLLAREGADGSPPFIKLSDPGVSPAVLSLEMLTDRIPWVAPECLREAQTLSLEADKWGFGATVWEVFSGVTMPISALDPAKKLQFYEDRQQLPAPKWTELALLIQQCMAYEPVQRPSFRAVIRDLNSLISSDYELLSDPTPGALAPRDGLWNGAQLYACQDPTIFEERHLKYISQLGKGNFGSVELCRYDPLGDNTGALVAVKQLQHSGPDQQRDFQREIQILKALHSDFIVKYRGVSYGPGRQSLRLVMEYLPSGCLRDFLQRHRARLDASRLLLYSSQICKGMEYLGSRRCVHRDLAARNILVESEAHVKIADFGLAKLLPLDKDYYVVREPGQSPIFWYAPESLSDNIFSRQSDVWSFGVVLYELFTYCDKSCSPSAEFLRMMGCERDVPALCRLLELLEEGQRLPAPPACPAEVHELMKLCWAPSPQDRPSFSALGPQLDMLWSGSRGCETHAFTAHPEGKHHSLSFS

BTK [3] = molecular target: T1, BTK; test: BTK occupancy from in vitro samples by ELISA (Ramos cells); assay type: cell-based
Protocol: In order to determine the amount of free BTK in cell or tissue lysates, an ELISA protocol was employed that utilizes a biotinylated probe compound that binds only to free, unoccupied BTK. The conjugated biotin is captured on a streptavidin-coated ELISA plate and detected with a mouse anti-BTK antibody (Becton Dickinson, Franklin Lakes, N.J., USA) and a secondary goat anti-mouse HRP antibody (Zymed, South San Francisco, Calif., USA).
(§1) All samples were prepared with equal concentrations of Biorad lysis buffer (Hercules, Calif., USA), 0.5% bovine serum albumin in PBS with 0.05% Tween-20 to give a final concentration of 1 μM I-215. Samples were incubated in a mixing plate for 1 hr at room temperature while shaking to allow probe compound I-215 to bind to free BTK. After incubation with I-215, samples were added to a washed, streptavidin-coated ELISA plate (Pierce, Rockford, Ill., USA) and incubated for 1 hr at room temperature while shaking. The plate was then washed with PBS containing 0.05% Tween-20 using an automatic plate washer. Anti-BTK antibody was prepared at 1:1000 dilution in 0.5% BSA in PBS (0.05% Tween-20) and added to the ELISA plate. The plate was incubated for 1 hr at room temperature while shaking. The plate was washed as described above and the secondary HRP antibody was prepared at 1:5000 dilution in 0.5% BSA in PBS (0.05% Tween-20). The plate was incubated and washed as described above. TMB was added to the plate, and OD650 was monitored until reaching 1 OD unit. The reaction was then stopped with addition of H2SO4. The plate was analyzed using Gen 5 software, and a 4 Parameter Logistic curve was employed to quantitate samples. Recombinant BTK (Invitrogen, Carlsbad, Calif., USA) was used for the standard curve.
A concentration designated as “A” is greater than 1 nM; a concentration designated as “B” is greater than 10 nM; and a concentration designated as “C” is greater than 50 nM.

BTK [4] = molecular target: T1, BTK; test: Human primary B cell covalent probe occupancy in vitro; assay type: cell-based; conditions: human primary B cells, 1 h at 37° C.
Protocol: as §1, with “The plate was incubated and washed as described above.” left out, “The reaction was then stopped with addition of H2SO4.” left out, “Recombinant BTK (Invitrogen, Carlsbad, Calif., USA) was used for the standard curve.” left out
Human primary B cells were isolated as described in Example 256, then resuspended in RPMI media (10% serum). The compound to be analyzed was added at a 1:1000 dilution to media. […] The supernatant was analyzed as described in Example 283 using I-215.

BTK [5] = molecular target: BTK (Rattus norvegicus, UniProt Q5S255); test: BTK occupancy from in vivo samples by ELISA; conditions: po, rats dosed orally 30 mg/kg
Sequence of BTK (Rattus norvegicus, UniProt Q5S255) (Q5S255 1-660): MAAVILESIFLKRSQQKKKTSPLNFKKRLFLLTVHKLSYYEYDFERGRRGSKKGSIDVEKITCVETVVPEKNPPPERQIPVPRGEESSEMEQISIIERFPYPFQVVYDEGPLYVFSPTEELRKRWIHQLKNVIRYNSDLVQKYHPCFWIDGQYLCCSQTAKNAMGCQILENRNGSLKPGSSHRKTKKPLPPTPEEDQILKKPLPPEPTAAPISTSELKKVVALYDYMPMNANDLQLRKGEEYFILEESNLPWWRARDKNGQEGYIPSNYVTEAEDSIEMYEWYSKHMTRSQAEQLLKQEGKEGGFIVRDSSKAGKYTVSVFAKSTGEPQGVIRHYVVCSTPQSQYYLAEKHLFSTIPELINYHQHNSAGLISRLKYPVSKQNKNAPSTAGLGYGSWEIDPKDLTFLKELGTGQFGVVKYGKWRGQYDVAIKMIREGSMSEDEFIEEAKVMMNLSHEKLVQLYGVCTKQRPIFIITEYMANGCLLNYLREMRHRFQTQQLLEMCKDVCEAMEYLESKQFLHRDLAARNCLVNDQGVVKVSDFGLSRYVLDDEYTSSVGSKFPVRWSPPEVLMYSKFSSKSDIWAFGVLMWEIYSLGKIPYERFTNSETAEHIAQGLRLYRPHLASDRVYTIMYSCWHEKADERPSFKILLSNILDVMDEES
Protocol: as §1
Rats were dosed orally with 30 mg/kg of compound and spleens were harvested either 2 or 24 hours after compound treatment. Rat spleens were disrupted between two microscope slides coated with frosted glass to recover single cell suspensions. Red blood cells were lysed by incubating with RBC lysis buffer (Boston BioProducts) for 2 minutes at room temperature, the cells were then resuspended in RPMI complete media and pelleted by centrifugation. Rat B cells were isolated by positive selection with B220+ antibody-magnetic bead conjugates, purified by MACS column and lysed in Bio-Rad lysis buffer at a concentration of 10 million cells/100 μl. Lysates were analyzed employing the biotinylated probe compound I-215 in an ELISA protocol as described in detail in Example 278.

BTK [6] = molecular target: BTK (Canis lupus familiaris, UniProt A0A8I3P3Z9); test: Dog primary B cell covalent probe occupancy in vitro; assay type: cell-based; conditions: canine PBMCs, one hour at 37° C.
Sequence of BTK (Canis lupus familiaris, UniProt A0A8I3P3Z9) (A0A8I3P3Z9 1-664): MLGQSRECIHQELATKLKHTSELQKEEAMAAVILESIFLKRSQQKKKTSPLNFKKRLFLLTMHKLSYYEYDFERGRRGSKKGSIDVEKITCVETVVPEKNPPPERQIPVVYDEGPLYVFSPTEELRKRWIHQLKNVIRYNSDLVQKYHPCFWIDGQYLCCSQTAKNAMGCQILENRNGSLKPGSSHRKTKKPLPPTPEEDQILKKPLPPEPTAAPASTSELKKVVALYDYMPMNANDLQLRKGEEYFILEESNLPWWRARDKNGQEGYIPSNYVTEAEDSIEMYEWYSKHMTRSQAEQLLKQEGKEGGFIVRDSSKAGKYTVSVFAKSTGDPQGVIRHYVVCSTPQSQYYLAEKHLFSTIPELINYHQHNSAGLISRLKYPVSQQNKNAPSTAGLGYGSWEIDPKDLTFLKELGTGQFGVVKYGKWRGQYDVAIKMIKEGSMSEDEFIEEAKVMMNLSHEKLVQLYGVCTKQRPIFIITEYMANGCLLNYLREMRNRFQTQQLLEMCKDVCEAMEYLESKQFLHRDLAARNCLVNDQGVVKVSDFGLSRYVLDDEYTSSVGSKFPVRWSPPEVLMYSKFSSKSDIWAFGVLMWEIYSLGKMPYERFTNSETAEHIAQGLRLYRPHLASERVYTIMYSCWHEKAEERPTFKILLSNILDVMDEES
Protocol: as §1, with “The reaction was then stopped with addition of H2SO4.” left out, “Recombinant BTK (Invitrogen, Carlsbad, Calif., USA) was used for the standard curve.” left out
Canine whole blood (30 mL) was diluted to 50 mL total with 1×PBS and layered on top of Histopaque-1077 (Sigma Aldrich). […] The supernatant was analyzed as described in Example 283 using I-215. […]

[7] = Homo sapiens, DOHH-2, DOHH2 B cell lymphoma cell line, read-out: EC50 (μM) DOHH2
[8] = Homo sapiens, WSUDLCL2, WSU-DLCL2 B cell lymphoma cell line, read-out: EC50 (μM) WSU-DLCL2
[9] = spleen B cells harvested 2 hours after treatment, read-out: % BTK Occupancy 2 h
[10] = spleen B cells harvested 24 hours after treatment, read-out: % BTK Occupancy 24 h

T1 sequence (Q06187 whole entry): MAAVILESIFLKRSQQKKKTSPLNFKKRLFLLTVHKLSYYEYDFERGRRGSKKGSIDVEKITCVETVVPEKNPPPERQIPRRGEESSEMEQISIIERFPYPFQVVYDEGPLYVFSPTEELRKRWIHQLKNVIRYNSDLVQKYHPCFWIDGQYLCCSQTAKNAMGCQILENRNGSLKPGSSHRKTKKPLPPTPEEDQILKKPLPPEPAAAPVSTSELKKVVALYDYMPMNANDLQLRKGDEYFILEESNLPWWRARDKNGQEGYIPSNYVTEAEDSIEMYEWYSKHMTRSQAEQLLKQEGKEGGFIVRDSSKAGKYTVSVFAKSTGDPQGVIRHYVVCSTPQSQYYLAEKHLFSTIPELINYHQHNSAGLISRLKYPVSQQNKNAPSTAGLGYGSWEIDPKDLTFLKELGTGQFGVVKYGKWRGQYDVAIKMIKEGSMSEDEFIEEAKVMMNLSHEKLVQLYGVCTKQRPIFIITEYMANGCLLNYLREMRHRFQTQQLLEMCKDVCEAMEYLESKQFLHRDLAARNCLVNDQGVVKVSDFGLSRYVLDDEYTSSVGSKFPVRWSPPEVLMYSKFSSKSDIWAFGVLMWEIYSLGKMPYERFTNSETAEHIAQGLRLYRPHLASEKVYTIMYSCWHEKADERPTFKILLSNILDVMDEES

covalent modification of BTK by mass spectrometry (BTK [1]) | EC50 ([2]; DHL4 B cell lymphoma cell line, read-out: EC50 (μM) DHL4) [µM] | EC50 [2, 7] [µM] | EC50 [2, 8] [µM] | IC50 (JAK3) [nM] | >50% occupancy (concentration at which >50% of BTK is occupied) (BTK [3]) | >90% occupancy (concentration at which >90% of BTK is occupied) (BTK [3]) | concentration at which at least 50% of BTK is occupied (BTK [4]) | receptor occupancy at 30 mg/kg (BTK [5]; [9]) [%] | receptor occupancy at 30 mg/kg (BTK [5]; [10]) [%] | concentration at which at least 50% of BTK is occupied (BTK [6]) | SMILES | EC50 (Human naïve B cells) [nM]
completely modify | 1 to 10 | 1 to 10 | 1 to 10 | < 10 | A (greater than 1 nM) | C (greater than 50 nM) | greater than 10 nM | 99 | 79 |  | C=CC(=O)Nc1cccc(Nc2nc(Nc3ccc(OCCOC)cc3)ncc2F)c1 [Compound I-182, N-(3-(5-fluoro-2-(4-(2-methoxyethoxy)phenylamino)pyrimidin-4-ylamino)phenyl)acrylamide] | 1 to 10
completely modify |  | 0.1 to 1 | 1 to 10 | < 10 | A (greater than 1 nM) | B (greater than 10 nM) | greater than 10 nM | 87 | 60 | greater than 10 nM | C=CC(=O)Nc1cccc(Nc2nc(Nc3ccc(OCCOC)c(F)c3)ncc2F)c1 [Compound I-96, N-(3-(2-(3-fluoro-4-(2-methoxyethoxy)phenylamino)-5-fluoropyrimidin-4-ylamino)phenyl)acrylamide] | 1 to 10
